Measured values published in patent US8298994B2, “Substituted 1-(diazinyl)pyrazol-4-ylacetic acids, processes for their preparation and their use as herbicides and plant growth regulators” (Bayer Cropscience AG, priority 2008, dated 2012).

Columns and labels:
[1] = tested on: harmful plants such as Alopecurus myosuroides, Echinochloa crus galli, Setaria viridis and Veronica persica; test: Pre-emergence herbicidal effect (greenhouse pot test, visual scoring); type: in vivo; conditions: pre-emergence method, application rate of 0.32 kg of active substance per hectare, scored visually after about 3 weeks
Excerpt: 1. Pre-emergence Herbicidal Effect and Crop Plant Compatibility
Seeds of monocotyledonous or dicotyledonous weeds or crop plants are placed in sandy loam soil in wood-fiber pots and covered with soil. The compounds (I) according to the invention, formulated in the form of wettable powders (WP), are then applied to the surface of the soil cover in the form of an aqueous suspension or emulsion at a water application rate of 600 I/ha (converted), with addition of 0.2% wetting agent.
Following the treatment, the pots are placed in the greenhouse and kept under good growth conditions for the test plants. After about 3 weeks, the activity of the preparations is scored visually in comparison to untreated controls (herbicidal activity in percent (%): 100% activity=the plants have died, 0% activity=like control plants).

[2] = tested on: harmful plants such as Avena fatua, Echinochloa crus galli, Lolium multiflorum, Setaria viridis, Veronica persica, Viola tricolor and Alopecurus myosuroides; test: Post-emergence herbicidal effect (greenhouse pot test, visual scoring); type: in vivo; conditions: post-emergence method, application rate of 0.32 kg or less of active substance per hectare, scored visually after about 3 weeks
Procedure: 2. Post-emergence Herbicidal Effect and Crop Plant Compatibility
Seeds of monocotyledonous and dicotyledonous weeds and crop plants are placed in sandy loam soil in wood-fiber pots, covered with soil, and cultivated in a greenhouse under good growth conditions. 2 to 3 weeks after sowing, the test plants are treated at the one-leaf stage. The compounds (I) according to the invention, formulated as wettable powders (WP), are then sprayed onto the green parts of the plants as an aqueous suspension or emulsion at a water application rate of 600 I/ha (converted), with addition of 0.2% wetting agent. The test plants are allowed to stand in a greenhouse for about 3 weeks under optimum growth conditions, and the effect of the preparations is then scored visually by comparison with untreated controls (herbicidal activity in percent (%): 100% activity=the plants have died, 0% activity=like control plants).

Cc1nn(-c2cncnc2)c(-c2ccc(Br)cn2)c1CC(=O)O [Compound 1-119]
herbicidal activity [1]: good herbicidal activity
herbicidal activity [2]: good herbicidal activity

COC(=O)Cc1c(C)nn(-c2cncnc2)c1-c1cc(C)cs1 [Compound 2-64]
herbicidal activity [1]: good herbicidal activity
herbicidal activity [2]: good herbicidal activity

COC(=O)Cc1c(C)nn(-c2cncnc2)c1-c1ccc([N+](=O)[O-])cc1 [Compound 2-243]
herbicidal activity [1]: good herbicidal activity
herbicidal activity [2]: good herbicidal activity

Cc1nn(-c2cncnc2)c(-c2ccc(Br)cn2)c1CC(=O)OCC1CC1 [Compound 3-136]
herbicidal activity [2]: good herbicidal activity

COC(=O)Cc1c(C)nn(-c2cncnc2)c1-c1cc2ccccc2cn1 [Compound 2-241]
herbicidal activity [1]: good herbicidal activity
herbicidal activity [2]: good herbicidal activity

COc1ccnc(-c2c(CC(=O)O)c(C)nn2-c2cncnc2)c1 [Compound 1-154]
herbicidal activity [1]: good herbicidal activity
herbicidal activity [2]: good herbicidal activity

COC(=O)Cc1c(C)nn(-c2cncnc2)c1-c1ccc(C)cn1 [Compound 2-124]
herbicidal activity [1]: good herbicidal activity
herbicidal activity [2]: good herbicidal activity

Cc1nn(-c2cncnc2)c(-c2ccc(Cl)cc2)c1CC(=O)OCC1CC1 [Compound 3-121]
herbicidal activity [1]: good herbicidal activity
herbicidal activity [2]: good herbicidal activity

Cc1nn(-c2cncnc2)c(-c2ccc(Cl)cc2)c1CC(=O)O [Compound 1-28]
herbicidal activity [1]: good herbicidal activity
herbicidal activity [2]: good herbicidal activity

Cc1nn(-c2cncnc2)c(-c2ccc(Cl)cn2)c1CC(=O)O [Compound 1-116]
herbicidal activity [1]: good herbicidal activity
herbicidal activity [2]: good herbicidal activity

COC(=O)Cc1c(C)nn(-c2cncnc2)c1-c1ccc(Cl)cc1 [Compound 2-28]
herbicidal activity [1]: good herbicidal activity
herbicidal activity [2]: good herbicidal activity

C#CCOC(=O)Cc1c(C)nn(-c2cncnc2)c1-c1ccc(Cl)cn1 [Compound 3-112]
herbicidal activity [1]: good herbicidal activity
herbicidal activity [2]: good herbicidal activity

COC(=O)Cc1c(C)nn(-c2cncnc2)c1-c1ncccn1 [Compound 2-224]
herbicidal activity [1]: good herbicidal activity
herbicidal activity [2]: good herbicidal activity

COC(=O)Cc1c(C)nn(-c2cncnc2)c1-c1ccc(C)cc1 [Compound 2-16]
herbicidal activity [1]: good herbicidal activity
herbicidal activity [2]: good herbicidal activity

COC(=O)Cc1c(C)nn(-c2cncnc2)c1-c1ccccn1 [Compound 2-116, Methyl[3-methyl-5-(pyridin-2-yl)-1-(pyrimidin-5-yl)-1H-pyrazol-4-yl]acetate]
herbicidal activity [1]: good herbicidal activity
herbicidal activity [2]: good herbicidal activity

CCOC(=O)Cc1c(C)nn(-c2cncnc2)c1-c1ccc(Br)cn1 [Compound 3-26]
herbicidal activity [1]: good herbicidal activity
herbicidal activity [2]: good herbicidal activity

COC(=O)Cc1c(C)nn(-c2cncnc2)c1-c1cc(C)cc(C)c1 [Compound 2-47]
herbicidal activity [1]: good herbicidal activity
herbicidal activity [2]: good herbicidal activity

COC(=O)Cc1c(C)nn(-c2cncnc2)c1-c1cc(C)ccn1 [Compound 2-148]
herbicidal activity [1]: good herbicidal activity
herbicidal activity [2]: good herbicidal activity

COC(=O)Cc1c(C)nn(-c2cncnc2)c1-c1cc(OC)ccn1 [Compound 2-155]
herbicidal activity [1]: good herbicidal activity
herbicidal activity [2]: good herbicidal activity

COC(=O)Cc1c(C)nn(-c2cncnc2)c1-c1ccc(Cl)s1 [Compound 2-65]
herbicidal activity [1]: good herbicidal activity
herbicidal activity [2]: good herbicidal activity

COC(=O)Cc1c(C)nn(-c2cncnc2)c1-c1ccc(F)cc1 [Compound 2-132]
herbicidal activity [1]: good herbicidal activity
herbicidal activity [2]: good herbicidal activity

Cc1cnc(-c2c(CC(=O)O)c(C)nn2-c2cncnc2)cn1 [Compound 1-214]
herbicidal activity [1]: good herbicidal activity
herbicidal activity [2]: good herbicidal activity

CC#CCOC(=O)Cc1c(C)nn(-c2cncnc2)c1-c1ccc(Br)cn1 [Compound 3-176]
herbicidal activity [1]: good herbicidal activity
herbicidal activity [2]: good herbicidal activity

CCOC(=O)Cc1c(C)nn(-c2cncnc2)c1-c1ccc(Cl)cn1 [Compound 3-25]
herbicidal activity [1]: good herbicidal activity
herbicidal activity [2]: good herbicidal activity

COC(=O)Cc1c(C)nn(-c2cncnc2)c1-c1ccccc1 [Compound 2-2]
herbicidal activity [1]: good herbicidal activity
herbicidal activity [2]: good herbicidal activity

COC(=O)Cc1c(C)nn(-c2cncnc2)c1-c1ccc(Cl)c(C)c1 [Compound 2-135]
herbicidal activity [1]: good herbicidal activity
herbicidal activity [2]: good herbicidal activity

COC(=O)Cc1c(C)nn(-c2cncnc2)c1-c1cnc(C)cn1 [Compound 2-215]
herbicidal activity [1]: good herbicidal activity
herbicidal activity [2]: good herbicidal activity

Cc1cc(C)nc(-c2c(CC(=O)O)c(C)nn2-c2cncnc2)c1 [Compound 1-210]
herbicidal activity [1]: good herbicidal activity
herbicidal activity [2]: good herbicidal activity

Cc1nn(-c2cncnc2)c(-c2ccc(Cl)cn2)c1CC(=O)OCC(F)F [Compound 3-353]
herbicidal activity [1]: good herbicidal activity
herbicidal activity [2]: good herbicidal activity

Cc1nn(-c2cncnc2)c(-c2ccc(Cl)cn2)c1CC(=O)OCC1CC1 [Compound 3-135]
herbicidal activity [1]: good herbicidal activity
herbicidal activity [2]: good herbicidal activity

CC#CCOC(=O)Cc1c(C)nn(-c2cncnc2)c1-c1ccc(Cl)cc1 [Compound 3-161]
herbicidal activity [1]: good herbicidal activity
herbicidal activity [2]: good herbicidal activity

COC(=O)Cc1c(C)nn(-c2cncnc2)c1-c1ccc(Cl)cn1 [Compound 2-117]
herbicidal activity [1]: good herbicidal activity
herbicidal activity [2]: good herbicidal activity

CCOC(=O)Cc1c(C)nn(-c2cncnc2)c1-c1cc(C)ccn1 [Compound 3-36]
herbicidal activity [1]: good herbicidal activity

COC(=O)Cc1c(C)nn(-c2cncnc2)c1-c1ccc(Br)cn1 [Compound 2-120]
herbicidal activity [1]: good herbicidal activity
herbicidal activity [2]: good herbicidal activity

C=CCc1ccc(-c2c(CC(=O)OC)c(C)nn2-c2cncnc2)nc1 [Compound 2-249]
herbicidal activity [1]: good herbicidal activity
herbicidal activity [2]: good herbicidal activity

Cc1nn(-c2cncnc2)c(-c2cc3ccccc3cn2)c1CC(=O)O [Compound 1-236]
herbicidal activity [1]: good herbicidal activity
herbicidal activity [2]: good herbicidal activity

CCOC(=O)Cc1c(C)nn(-c2cncnc2)c1-c1ccc(Cl)cc1 [Compound 3-4]
herbicidal activity [1]: good herbicidal activity
herbicidal activity [2]: good herbicidal activity

COC(=O)Cc1c(C)nn(-c2cncnc2)c1-c1ccc(Br)cc1 [Compound 2-240]
herbicidal activity [1]: good herbicidal activity
herbicidal activity [2]: good herbicidal activity

COC(=O)Cc1c(C)nn(-c2cncnc2)c1-c1nc2ccccc2s1 [Compound 2-217]
herbicidal activity [1]: good herbicidal activity
herbicidal activity [2]: good herbicidal activity
